Results taken from patent US20130251782A1, “TOPICAL APPLICATION OF INGENOL MEBUTATE WITH OCCLUSION” (LEO LABORATORIES LIMITED, priority 2012, published 2013).
Like-named read-outs stand apart in the source and are kept apart here.

Tests used:
[1] = In vitro skin permeation and penetration of PEP005, flow through diffusion cells; type: in vitro ADME, pig
Text: The in vitro skin permeation and penetration of PEP005 was investigated with various types of occlusion dressings, using flow through diffusion cells. Dressings were applied immediately (without formulation drying), as well as after the formulation had dried. Additionally, PEP005 might also be absorbed into the occlusion dressing, which also was investigated.
Methods: The in vitro permeation and penetration of PEP005 into pig ear skin was studied using PermeGear® flow through diffusion cells (n=6 per formulation). The skin diffusion experiment was allowed to proceed for 21 hours into a recipient phase consisting of 0.04 M isotonic phosphate buffer pH 7.4. Samples from the different skin layers and recipient phase were collected in order to determine flux and skin distribution of PEP005. The samples were analysed by LC-MS/MS.
The test formulation used is an aqueous based gel formulation containing; PEP005 0.5 mg/g, Benzyl Alcohol 9 mg/g, Isopropanol 300 mg/g, Citric acid 5.4 mg/g, Sodium Citrate dihydrate 1.4 mg/g, Hydroxyethyl Cellulose 15 mg/g and water up to 1 g, with a formulation pH of 3.2.
Full thickness skin from pig ears was used in the study. The ears were kept frozen at −18° C. until use. Before the experiment, the ears were placed in a refrigerator (2-8° C.) for slow defrosting. The hairs were removed using a veterinary hair trimmer. The skin was cleaned for subdermal fat using a scalpel, and two pieces of skin were cut from each ear. The pieces of skin were refrozen and kept for no longer than 4 weeks. […]
The used PermeGear® automated system incorporate nine flow through diffusion cells (1-9) made of clear glass, in which the donor and receptor chambers were separated by a diffusion membrane and held together by a pinch clamp. […] The specific volume was measured and registered for each cell. […]
Prior to application of the formulation, the experiment was started by starting the pump. […] The formulation was applied using a glass spatula and the residual amount of formulation was determined, thus giving the actual amount of formulation applied to the skin. […]

[2] = system: sBCC lesion on the trunk or extremities; type: in vivo
Text: The primary objective of the clinical trial was to evaluate the safety of PEP005 Gel, 0.05% when administered for up to 3 consecutive days application (Day 1, 2 and 3), to a sBCC lesion on the trunk and extremities.
Another objective of the clinical trial was to evaluate the efficacy of PEP005 Gel, 0.05% when administered for up to 3 consecutive days application (Day 1, 2 and 3), to a sBCC lesion on the trunk and extremities.
This was a phase 2, multi-centre, parallel group, open-label trial to evaluate the safety and efficacy of PEP005 (ingenol mebutate) Gel, 0.05%, when administered for up to 3 consecutive days (Day 1, 2 and 3) to a sBCC lesion on the trunk or extremities.
The trial population was planned to include 75 subjects aged at least 18 years with a primary diagnosed and histologically confirmed sBCC located on the trunk or extremities which was suitable for excision.
Eligible subjects were randomised to receive physician-applied trial medication in one of the following 3 treatment groups:
Group 1) PEP005 Gel, 0.05%, up to 3 consecutive days treatment, occluded with an aluminium disk;
Group 2) PEP005 Gel, 0.05%, up to 3 consecutive days treatment, occluded with an Opsite™ disk;
Group 3) PEP005 Gel, 0.05%, up to 3 consecutive days treatment, not occluded.
Eligible subjects received PEP005 Gel on Days 1, 2 and 3. […] If tolerability to trial medication was maintained, the subjects received all 3 doses of PEP005 Gel, 0.05%, regardless of whether the sBCC lesion being treated was resolved or not.
Subsequent follow-up visits for safety assessments were made on Days 2, 3 (as applicable), 4 (as applicable), 8, 15, 29, 57, 85 and 120. Histological and clinical efficacy assessments were only conducted at Day 120. If trial medication was not administered on Day 2 a follow-up visit on Day 3 or 4 was not necessary, unless clinically indicated. If trial medication was not administered on Day 3 a follow-up visit on Day 4 was not necessary, unless clinically indicated.
The volume of PEP005 Gel applied to the selected treatment area was 30 μl for lesions with the longest axes of between 4-10 mm and 50 μl for lesions with the longest axes of between 11-15 mm.
The actual treatment analysis set included the same subjects as in the full analysis set, i.e. 75 randomised subjects. However, 2 subjects who received the wrong treatment were assigned to their actual treatment group, i.e. PEP005 Aluminium Disk.
Thus, in the actual treatment analysis set 27 subjects were included in PEP005 Aluminium Disk group and 24 subjects both in PEP005 Opsite™ Disk group and PEP005 No Occlusion group.

[3] = cited from earlier work

C/C=C(/C)C(=O)O[C@H]1C(C)=C[C@]23C(=O)[C@@H](C=C(CO)[C@@H](O)[C@]12O)[C@H]1[C@@H](C[C@H]3C)C1(C)C [PEP005, 2-methyl-2(Z)-butenoic acid (1aR,2S,5R,5aS,6S,8aS,9R,10aR)-5,5a-dihydroxy-4-(hydroxymethyl)-1,1,7,9-tetramethyl-11-oxo-1a,2,5,5a,6,9,10,10a-octahydro-1H-2,8a-methanocyclopenta[a]cyclopropa[e]cyclodecen-6-yl ester]
Increase in penetrated amount of PEP005 after occlusion compared to the non-occluded treatment ([1]; Study PMPN1028, all dressings): 2-6 fold
Increase in permeation of PEP005 compared to the non-occluded treatment ([1]; aluminium foil, parafilm, Coloplast vinyl film and Compeed, Study PMPN1028): 9-10 fold
Increase in skin permeation compared to the non-occluded treatment ([1]; semi-occlusive dressing Flexifix, Study PMPN1028): 3 fold
Number of subjects who received 1 dose (dosing continued only if tolerated) ([2]; Aluminium Disk group (n = 27)): 22
Number of subjects who received 2 doses (dosing continued only if tolerated) ([2]; Aluminium Disk group (n = 27)): 2
Number of subjects who received 3 doses (dosing continued only if tolerated) ([2]; Aluminium Disk group (n = 27)): 13
Subjects who received 1 dose (dosing continued only if tolerated) ([2]; Aluminium Disk group (n = 27)): 81.5%
Subjects who received 2 doses (dosing continued only if tolerated) ([2]; Aluminium Disk group (n = 27)): 7.4%
Subjects who received 3 doses (dosing continued only if tolerated) ([2]; Aluminium Disk group (n = 27)): 11.1%
Number of subjects who received 1 dose (dosing continued only if tolerated) ([2]; No Occlusion group (n = 24)): 0
Number of subjects who received 2 doses (dosing continued only if tolerated) ([2]; No Occlusion group (n = 24)): 1
Number of subjects who received 3 doses (dosing continued only if tolerated) ([2]; No Occlusion group (n = 24)): 23
Subjects who received 1 dose (dosing continued only if tolerated) ([2]; No Occlusion group (n = 24)): 0.0%
Subjects who received 2 doses (dosing continued only if tolerated) ([2]; No Occlusion group (n = 24)): 4.2%
Subjects who received 3 doses (dosing continued only if tolerated) ([2]; No Occlusion group (n = 24)): 95.8%
Number of subjects who received 1 dose (dosing continued only if tolerated) ([2]; OpSite Disk group (n = 24)): 0
Number of subjects who received 2 doses (dosing continued only if tolerated) ([2]; OpSite Disk group (n = 24)): 5
Number of subjects who received 3 doses (dosing continued only if tolerated) ([2]; OpSite Disk group (n = 24)): 19
Subjects who received 1 dose (dosing continued only if tolerated) ([2]; OpSite Disk group (n = 24)): 0.0%
Subjects who received 2 doses (dosing continued only if tolerated) ([2]; OpSite Disk group (n = 24)): 20.8%
Subjects who received 3 doses (dosing continued only if tolerated) ([2]; OpSite Disk group (n = 24)): 79.2%
Stability in alcohols ([3]; alcohols such as benzyl alcohol and isopropyl alcohol): good stability
Stability at low pH ([3]; low pH): good stability
